Measured values taken from patent publication US7109236B2, “Analogs of green tea polyphenols as chemotherapeutic and chemopreventive agents” (SRI International, priority 2002, dated 2006).

What was measured:
[1] = test system: MCF-7 (ER+); assay: MTT growth inhibition assay, MCF-7 breast cancer cells; format: cell-based
Description: (§1) Compounds of the invention were tested for their ability to inhibit growth in two breast cancer cell lines, MCF-7 (ER+) and MDA-MB-231 (ER−).
(§2) The growth inhibition assays were conducted using routine methods. Briefly, the cells were seeded in 24-well plates at a density of 2000 cells per well in 200 μL of […] growth medium. To each well was added 10 μL of DMSO containing the dissolved test compound; final DMSO concentration in each well was not more than 0.5%. Each test compound was assayed at concentrations of 0.4, 2, 10, and 50 μM. The plates were incubated for eight days, with the media and test solutions replaced every third day. On Day 8, the viable cells were measured by the MTT assay, as described in Mosmann et al. (1983), “Rapid Colorimetric Assay for Cellular Growth and Survival: Application to Proliferation and Cytotoxicity,” J. Immunol. Method. 65:55–63. The optical density at 575 nm of each test well was measured and compared to that for control wells, and the data used to calculate the percentage of growth inhibition at different concentrations. The IC50 value (the concentration of growth inhibitor that results in 50% growth inhibition of the cells in culture relative to control cells not exposed to any growth inhibitor) was determined by plotting dose-response curves.
(§3) The calculated IC50 values are set forth in Table 1, with the results representing the average of at least two experiments conducted for each compound at each of the four concentrations.
(§4) The foregoing procedures were repeated with additional compounds of the invention to evaluate the their ability to inhibit growth in MCF-7 (ER+) and MDA-MB-231 (ER−).

[2] = test system: MDA-MB-231 (ER−); assay: MTT growth inhibition assay, MDA-MB-231 breast cancer cells; format: cell-based
Description: as §1, §2, §3, §4

[3] = test system: MCF-7 cells; assay: Cell cycle studies in MCF-7 cells; format: cell-based; settings: 10 μM
Text: To establish that the analogs of EGCG also act via the same mechanisms as EGCG itself, the active analog SR 13196 in cell cycle studies in MCF-7 cells was examined.

[4] = test system: human lung tumor cells (A427); assay: Anchorage-independent growth inhibition assay (colony formation in soft agar); format: cell-based; settings: for Expected Colonies: A427 cells, (cells plated)(Surviving Fraction)(Frequency)
Description: (§5) An anchorage-independent growth inhibition assay was performed as described in Korytynski, et al. (1996) “The development of an anchorage-independence assay using human lung tumor cells to screen potential chemopreventive agents,” Anticancer Res. 16, 1091–1094; and Sharma, et al. (1997) “The anchorage-independent assay as a screening tool to identify potential chemopreventive agents,” Methods Cell Sci. 19, 9–12. The assay measures the inhibition of colony formation of human lung tumor cells (A427) cells grown in soft agar. In this assay, A427 cells were grown in the presence of the test agent, SR 13196, EGCG or 13-cis-RA Control samples were tested using an equivalent volume of DMSO alone. A concurrent assay for cell survival was also performed.
(§6) Thus, SR 13196 inhibits colony formation of A427 cells in vitro, as well as their survival, and in a dose-dependent manner.

[5] = in vitro; settings: human, Caco-2, pH 7.4
Text: (§7) The Caco-2 human colon adenocarcinoma cell line has become accepted as a predictive model for human intestinal absorption. […] The transport is reported as a permeability coefficient, P(app), which is compared to those of the known standards.

[6] = test system: A427 cells; assay: Concurrent assay for cell survival; format: cell-based, human; settings: highest concentration tested (25 μM)
Description: as §5, §6

[7] = standards of known oral bioavailability; cited from earlier work
[8] = test system: Caco-2 human colon adenocarcinoma cell line; assay: Caco-2 intestinal permeability model; settings: for Papp: Caco-2, pH 7.4
Text: as §7

[9] = Homo sapiens, MCF7, 192 h, Table 1, 8 days
[10] = Homo sapiens, MDA-MB-231, 192 h, Table 1, 8 days
[11] = Table 2 (repeat run with additional compounds), 8 days
[12] = Homo sapiens, MCF7, 192 h, Table 2 (repeat run with additional compounds), 8 days
[13] = Homo sapiens, MDA-MB-231, 192 h, Table 2 (repeat run with additional compounds), 8 days

SMILES: COc1cc([C@H]2Oc3cc(O)cc(O)c3C[C@H]2OC(=O)c2cc(C)c(O)c(C)c2)cc(OC)c1OC (relative stereo) [SR 13196]
- IC50 [1, 9]: 8.39 µM
- IC50 [2, 10]: 19.6 µM
- effect on cell cycle [3]: arrests the cell cycle in G1
- inhibition of colony formation, in words ([4]; A427 cells in soft agar): inhibited colony formation to a much greater extent than either EGCG or 13-cis-RA
- Expected Colonies ([4]; 1.56 μM): 277
- Expected Colonies ([4]; 3.12 μM): 160
- Expected Colonies ([4]; 6.25 μM): 67
- Expected Colonies ([4]; 12.5 μM): 52
- inhibition at 1.56 µM ([4]; Homo sapiens, A-427, A427 cells in soft agar, 1.56 μM): 4%
- inhibition at 3.12 µM ([4]; Homo sapiens, A-427, A427 cells in soft agar, 3.12 μM): 32%
- inhibition at 6.25 µM ([4]; Homo sapiens, A-427, A427 cells in soft agar, 6.25 μM): 43%
- inhibition at 12.5 µM ([4]; Homo sapiens, A-427, A427 cells in soft agar, 12.5 μM): 46%
- inhibition at 25 µM ([4]; Homo sapiens, A-427, A427 cells in soft agar, 25 μM): 81%
- Papp at 100 μM [5]: 6.82 ± 0.83 ×10⁻⁶ cm/s

SMILES: CC1=C(/C=C/C(C)=C/C=C/C(C)=C\C(=O)O)C(C)(C)CCC1 [Compound 13-cis-RA, reference compound]
- Expected Colonies ([4]; 1.56 μM): 332
- Expected Colonies ([4]; 3.12 μM): 320
- Expected Colonies ([4]; 6.25 μM): 289
- Expected Colonies ([4]; 12.5 μM): 265
- Expected Colonies ([4]; 25 μM): 254
- surviving cells [6]: 68%

SMILES: CN1C(=O)CN=C(c2ccccc2)c2cc(Cl)ccc21 [Diazepam, diazepam]
- % Absorbed (literature value) [7]: 100%

SMILES: O=C(O[C@@H]1Cc2c(O)cc(O)cc2O[C@@H]1c1cc(O)c(O)c(O)c1)c1cc(O)c(O)c(O)c1 [EGCG, (−)-epigallocatechin-3-gallate, reference compound]
- IC50 [1, 11]: 37.1 µM
- IC50 [2, 11]: 36.9 µM
- effect on cell cycle [3]: arrests the cell cycle in G1
- Expected Colonies ([4]; 1.56 μM): 386
- Expected Colonies ([4]; 3.12 μM): 382
- Expected Colonies ([4]; 6.25 μM): 378
- Expected Colonies ([4]; 12.5 μM): 331
- Expected Colonies ([4]; 25 μM): 191
- permeability coefficient (Papp), in words ([8]; Caco-2 model, summary of the experiments): low permeability coefficient

SMILES: Nc1nc(O)c2ncn(COC(CO)CO)c2n1 [Ganciclovir, ganciclovir]
- % Absorbed (literature value) [7]: 3%

SMILES: COc1cc(C2Oc3cc(O)cc(O)c3C[C@H]2OC(=O)c2cc(O)c(O)c(O)c2)cc(OC)c1OC (stereo partly drawn) [SR 13194, trans-5,7-DIHYDROXY-2-(3,4,5-TRIMETHOXY-PHENYL)-3,4-DIHYDRO-2H-CHROMAN-3-YL, 3,4,5-TRIHYDROXY-BENZOIC ACID ESTER]
- IC50 [1, 9]: > 100 µM
- IC50 [2, 10]: > 100 µM

SMILES: COc1cc([C@H]2Oc3cc(O)cc(O)c3C[C@H]2OC(=O)c2cc(O)c(O)c(O)c2)cc(OC)c1OC [SR 13195, cis-5,7-DIHYDROXY-2-(3,4,5-TRIMETHOXY-PHENYL)-3,4-DIHYDRO-2H-CHROMAN-3-YL, 3,4,5-TRIHYDROXY-BENZOIC ACID ESTER]
- IC50 [1, 9]: > 100 µM
- IC50 [2, 10]: > 100 µM

SMILES: COc1cc(OC)c2c(c1)OC(c1cc(O)c(O)c(O)c1)[C@H](OC(=O)c1cc(O)c(O)c(O)c1)C2 (stereo partly drawn) [SR 13198, trans-5,7-DIMETHOXY-2-(3,4,5-TRIHYDROXY-PHENYL)-3,4-DIHYDRO-2H-CHROMAN-3-YL, 3,4,5-TRIHYDROXY-BENZOIC ACID ESTER]
- IC50 [1, 12]: 42.1 µM
- IC50 [2, 13]: 35.9 µM

SMILES: COc1cc(OC)c2c(c1)O[C@H](c1cc(O)c(O)c(O)c1)[C@H](OC(=O)c1cc(C)c(O)c(C)c1)C2 [SR 13200]
- IC50 [1, 12]: 22.9 µM
- IC50 [2, 13]: 22.6 µM

SMILES: Cc1cc(C)c2c(c1)OC(c1cc(O)c(O)c(O)c1)[C@H](OC(=O)c1cc(O)c(O)c(O)c1)C2 (stereo partly drawn) [SR 13911]
- IC50 [1, 12]: 23.6 µM
- IC50 [2, 13]: 25.7 µM
- Papp at 100 μM [5]: 1.42 ± 1.6 ×10⁻⁶ cm/s

SMILES: Cc1cc(C)c2c(c1)O[C@H](c1cc(O)c(O)c(O)c1)[C@H](OC(=O)c1cc(O)c(O)c(O)c1)C2 [SR 13912]
- IC50 [1, 12]: 21.8 µM
- IC50 [2, 13]: 53.7 µM

SMILES: Cc1cc(C)c2c(c1)O[C@H](c1cc(O)c(O)c(O)c1)[C@H](OC(=O)c1cc(C)c(O)c(C)c1)C2 [SR 13913]
- IC50 [1, 12]: 17.2 µM
- Papp at 100 μM [5]: < 0.06 ×10⁻⁶ cm/s

SMILES: COc1cc([C@H]2Oc3cc(O)cc(O)c3C[C@H]2OC(=O)c2cc(O)c(O)c(O)c2)cc(OC)c1O [SR 13915]
- IC50 [1, 11]: > 100 µM
- IC50 [2, 11]: > 100 µM
- Papp [8]: 5.17 ± 0.49 ×10⁻⁶ cm/s

SMILES: Cc1cc(C(=O)O[C@@H]2Cc3c(O)cc(O)cc3O[C@@H]2c2cc(C)c(O)c(C)c2)cc(C)c1O [SR 13916]
- IC50 [1, 11]: 6.61 µM
- IC50 [2, 11]: 10.2 µM

SMILES: Cc1cc([C@H]2Oc3cc(O)cc(O)c3CC2OC(=O)c2cc(O)c(O)c(O)c2)cc(C)c1O (stereo partly drawn) [SR 13917]
- IC50 [1, 11]: 6.12 µM
- IC50 [2, 11]: 2.98 µM

SMILES: Cc1cc([C@H]2Oc3cc(O)cc(O)c3C[C@H]2OC(=O)c2cc(O)c(O)c(O)c2)cc(C)c1O [SR 13918]
- IC50 [1, 11]: > 100 µM
- IC50 [2, 11]: 46.8 µM

SMILES: COc1cc(C(=O)O[C@@H]2Cc3c(C)cc(C)cc3O[C@@H]2c2cc(O)c(O)c(O)c2)cc(OC)c1OC [SR 13919]
- IC50 [1, 11]: 8.35 µM
- IC50 [2, 11]: 7.76 µM
- Papp [8]: < 0.06 ×10⁻⁶ cm/s

SMILES: COc1cc([C@H]2Oc3cc(O)cc(O)c3C[C@H]2OC(=O)c2cc(C)c(O)c(C)c2)cc(OC)c1O [SR 13920]
- IC50 [1, 11]: 33.1 µM
- IC50 [2, 11]: 9.97 µM
